Here are results for five molecules from EP2157088A1, “INDICYANINE DYES AND THE DERIVATIVES THEREOF FOR ANALYSING BIOLOGICAL MICROMOLECULES” (UCHREZHDENIE ROSSIISKOI AKADEMII NAUK INSTITUT …, priority 2007, dated 2008).

The nature of data set [1]: Quantum efficiency of fluorescence, measured versus a reference dye. Format: physicochemical. As to the method: For all indodicarbocyanine dyes (I) (A1) - (A30) and (B1) - (B7) of the invention, there are determined the quantum efficiency of fluorescence in methanol and in aqueous phosphate buffered saline (Table 1, Fig. 3). The measurements are performed versus dyes of formula (I) (R1= -CH3, R2= R6= -SO3^-; R3= -(CH2)5COOH, R4= -C2H5, R5= -H) whose quantum efficiency of fluorescence in PBS is 0.27 (Mader O., K. Reider, H.-J. Egelhaaaf, R, Fischer, R. Brock, Structure Properties of Pentamethine Indocyanine Dyes: Identification of New Dyes for Life Science Applications. Bioconjugate Chem, 2004, vol. 15, pp. 70-78). In methanol, dyes (A10, A22, A25, A29, A30) have the upper-range of quantum efficiency of fluorescence (Φ ∼ 0.3), but in PBS, dyes (A10, A22, A25, A29, A30) have the maximal Φ -value.

A short description of data set [2]: Molar extinction coefficient in methanol and PBS. It is filed as physicochemical. The arrangement: ε·10^-5: unit not given here. As to the method:
For all indodicarbocyanine dyes (I) (A1) - (A30) and (B1) - (B7) of the invention, there are determined the molar extinction coefficients in methanol and in aqueous phosphate buffered saline (PBS) (10 mM potassium phosphate buffer, sodium chloride concentration is 0.9%, pH 7.4). In methanol, indodicarbocyanine (A1, A8, A10-A12, A17, A23) has the upper-range of molar extinction coefficient (ε >[…]). In aqueous phosphate buffered saline (PBS), dyes (A10, A23, A30) have the maximal ε-value (Fig. 2).

A short description of data set [3]: Absorption and fluorescence maxima of the dyes. It is filed as physicochemical. The text has this:
An insertion of methyl group at 5- and 7-positions of indolenyne cycle produces a bathochromic shift in the absorption and fluorescent spectra. As to the rest sulfur containing dyes, the spectral characteristics thereof appear to be in the same range (between about λmax 648 nm and λem 669 nm) (Fig. 1),

The nature of data set [4]: Relative efficiency of fluorescence / absolute sensitivity of label, normalized to dye A30 in PBS. The conditions noted are these: for Sensitivity of record 635/ 670: excitation 635 nm, record 670 nm; for Sensitivity of record 655/ 690: excitation 655 nm, record 690 nm; for Sensitivity of record max/ max: excitation and record in absorption and fluorescence maxima, ε*Φ normalized to A30 in PBS. It is filed as physicochemical. The text has this: The data obtained were as follows: • on excitation and record in absorption and fluorescence maxima, the relative efficiency of fluorescence exceeds 0.80 for dyes (A10), (A22), (A23), (A25), and (A30) in methanol and for dyes (A22), (A25), and (A30) in PBS (Table 1, Fig. 4), whereas for dyes of formula (I) (R1 = -CH3, R2= R6= -SO3^-; R3= -(CH2)5COOH, R4= -C2H5; R5= -H) the values are 0.69 in methanol and 0.67 in PBS; • on excitation at wavelength 655 nm and record at 690 nm, the relative efficiency of fluorescence exceeds 0.25 for dyes (A25) and (A30) in methanol and is higher than 0.18 for dyes (A24) and (A30) in PBS (Table 1, Fig. 5), whereas for dyes of formula (I) (R1 = -CH3, R2 = R6= -SO3^-; R3= -(CH2)5COOH, R4= -C2H5; R5= -H) the values are 0.18 in methanol and 0.11 in PBS; • on excitation at wavelength 635 nm and record at 670 nm, the relative efficiency of fluorescence exceeds 0.50 for dyes (A1), (A11), (A23) in methanol and is higher than 0.45 for dyes (A22), (A25), and (A30) in PBS (Table 1, Fig. 6), whereas for dyes of formula (I) (R1= -CH3, R2= R6= -SO3^-; R3= -(CH2)5COOH, R4= -C2H5; R5= -H) the values are 0.44 in methanol and 0.38 in PBS.
Term sensitivity of fluorescent analysis is defined by the absolute sensitivity of label that may be represented as the product of molar extinction coefficient by quantum efficiency of fluorescence (ε*Φ). Thus, there are determined the absolute sensitivity of indodicarbocyanines (A1-A30, B1-B7) in appropriate absorption and fluorescence maxima in methanol and in aqueous phosphate buffered saline. The values are normalized to the maximal value obtained for dye (A30) in PBS (Table 1). In methanol, dyes (A10, A22, A23, A25, A30) have the upper-range of absolute sensitivity, but in PBS, dyes (A10, A22, A25, A29, A30) have the maximal values of sensitivity (Fig. 4).
To determine the most appropriate dyes for instrument setting, there are measured the relative efficiency of fluorescence of dyes at wavelength of excitation and record of the instrument (655 nm. / 690 nm). The maximal values appear to be specific to dyes (A25) and (A30) in methanol, and to dyes (A19, A22, A25, A29, A30) in PBS (Table 1, Fig. 5).
There are also measured the relative efficiency of fluorescence at wavelength of excitation and record of the instrument (635 nm / 670 nm). The maximal values appear to be specific to dyes (A1, A10, A11, A23) in methanol, and to dyes (A10, A22, A25, A29, A30) in PBS (Table 1, Fig. 6).

Data set [5] is classed as physicochemical. The source says:
Subject to substituent at the heterocyclic moiety, dyes of formulae (A) and (B) proposed are distinguished by a spectral range of excitation and fluorescence, by the total electrical charge, and water solubility (Table 1).

Setting [6] is: PBS (10 mM potassium phosphate buffer, 0.9% sodium chloride, pH 7.4).

Regarding `CCN1/C(=C/C=C/C=C/C2=[N+](CC)c3ccc(S(=O)(=O)[O-])cc3C2(C)C)C(C)(CCCCC(=O)O)c2ccccc21` (stereo not drawn) [A7, N,N'-diethyl-3-(4-carboxybutyl)-5'-sulfo-3,3',3'-trimethylindodicarbocyanine], the results for the “Φ (quantum efficiency of fluorescence)” value in data set [1] (MeOH) and in data set [1] (PBS) were 0.23 and 0.14, respectively. Also, the “ε·10^-5” value in data set [2] (MeOH) was 1.78±0.02; in data set [2] (setting [6]) it was 1.80±0.03. Further, the “λmax^abs” value turned out to be 647 nm in data set [3] (MeOH) and 646 nm in data set [3] (PBS). In addition, the “λmax^em” value in data set [3] (MeOH) came to 660 nm; in data set [3] (PBS), 663 nm. In addition, the “Sensitivity of record 635/ 670” value in data set [4] (MeOH) is on record as 0.359; in data set [4] (PBS) it was 0.207. The “Sensitivity of record 655/ 690” value in data set [4] (MeOH) amounted to 0.102; in data set [4] (PBS) it was 0.049. In addition, the “Sensitivity of record max/ max” value in data set [4] (MeOH) is listed as 0.514; in data set [4] (PBS), 0.353.
For “5,5'-disulfo-N,N'-di(4-sulfobutyl)-3-(4-carboxybutyl)-3,3',3'-trimethylindodicarbocyanine, trisodium salt [A30]”, in data set [1] (MeOH), the “Φ (quantum efficiency of fluorescence)” value is on record as ~0.3. In data set [5], the water solubility result is “very good water solubility”.
In the case of `CCN1C(=CC=CC=CC2=[N+](CCCCS(=O)(=O)[O-])c3ccc(C)cc3C2(C)CCCCC(=O)O)C(C)(C)c2ccccc21` (stereo not drawn) [A4, 3-(4-Carboxybutyl)-N-(4-sulfobutyl)-3,3',3',5-tetramethyl-N'-ethylin:dodicarbpcyanine], the “Φ (quantum efficiency of fluorescence)” value is 0.14 in data set [1] (MeOH) and 0.10 in data set [1] (PBS). The “ε·10^-5” value was determined as 2.14±0.03 in data set [2] (MeOH) and 2.1 ± 0.03 in data set [2] (setting [6]). Besides, the results for the “λmax^abs” value in data set [3] (MeOH) and in data set [3] (PBS) were 651 nm and 649 nm, respectively. The “λmax^em” value in data set [3] (MeOH) worked out at 668 nm; in data set [3] (PBS), 665 nm. The “Sensitivity of record 635/ 670” value in data set [4] (MeOH) was found to be 0.243; in data set [4] (PBS) it was 0.162. Further, the entries for the “Sensitivity of record 655/ 690” value in data set [4] (MeOH) and in data set [4] (PBS) were 0.143 and 0.054, respectively. Also, the “Sensitivity of record max/ max” value is 0.381 in data set [4] (MeOH) and 0.255 in data set [4] (PBS).
`CCN1C(=CC=CC=CC2=[N+](CCCCS(=O)(=O)[O-])c3ccc(C)cc3C2(C)CCCCC(=O)O)C(C)(C)c2cc(C)ccc21` (stereo not drawn) [A5, 3-(4-Carboxybutyl)-3,3',3',5,5'-pentamethyl-N-(4-sulfobutyl)-N'-ethylindodicarbocyanine]: the “Φ (quantum efficiency of fluorescence)” value in data set [1] (MeOH) is recorded as 0.16; in data set [1] (PBS), 0.09. In addition, the figures for the “ε·10^-5” value in data set [2] (MeOH) and in data set [2] (setting [6]) were 2.05±0.02 and 1.96±0.02, respectively. Further, the “λmax^abs” value in data set [3] (MeOH) is 654 nm; in data set [3] (PBS), 653 nm. The “λmax^em” value stood at 674 nm in data set [3] (MeOH) and 670 nm in data set [3] (PBS). The results for the “Sensitivity of record 635/ 670” value in data set [4] (MeOH) and in data set [4] (PBS) were 0.212 and 0.136, respectively. The entries for the “Sensitivity of record 655/ 690” value in data set [4] (MeOH) and in data set [4] (PBS) were 0.229 and 0.096, respectively. Moreover, the “Sensitivity of record max/ max” value in data set [4] (MeOH) came to 0.391; in data set [4] (PBS), 0.238.
Consider `CC1(C)C(=CC=CC=CC2=[N+](CCCCS(=O)(=O)[O-])c3ccc(CCC(=O)O)cc3C2(C)C)N(CCCCS(=O)(=O)[O-])c2ccc(S(=O)(=O)[O-])cc21.[Na+].[Na+]` [B7, N,N'-disulfobutyl-5-carboxyethyl-5'-sulfo-3,3,3',3'-tetramethylindodicarbocyanine, disodium salt], for which the water solubility result in data set [5] is reported as “very good water solubility”.
